Source: ChEMBL document CHEMBL3792369, “Nahuoic Acids B-E, Polyhydroxy Polyketides from the Marine-Derived Streptomyces sp. SCSGAA 0027” (2016)
Calls of active or inactive are those of the source. The rule behind the calls is not given here.

Tests used:
[1] = target: Acetylcholinesterase (Homo sapiens) (UniProt P22303); assay: Inhibition of acetylcholinesterase (unknown origin)
NCI-H1975 = assay: Cytotoxicity against human NCI-H1975 cells; assay type: functional, cell-based
K562 = assay: Cytotoxicity against human K562 cells; assay type: functional, cell-based
BGC-823 = assay: Cytotoxicity against human BGC823 cells; assay type: functional, cell-based
MCF7 = assay: Cytotoxicity against human MCF7 cells; assay type: functional, cell-based
HL-60 = assay: Cytotoxicity against human HL60 cells; assay type: functional, cell-based
Huh-7 = assay: Cytotoxicity against human HuH7 cells; assay type: functional, cell-based
Staphylococcus aureus [2] = assay: Antibacterial activity against Staphylococcus aureus; assay type: functional, organism-based
Shewanella oneidensis [3] = assay: Antibacterial activity against Shewanella oneidensis MR-1; assay type: functional
Staphylococcus aureus [4] = assay: Antibiofilm activity against Staphylococcus aureus assessed as inhibition of biofilm formation by crystal violet assay; assay type: functional, organism-based
Shewanella oneidensis [5] = assay: Antibiofilm activity against Shewanella oneidensis MR-1 assessed as inhibition of biofilm formation at 200 ug/ml by crystal violet assay; assay type: functional

Chain of Acetylcholinesterase (Homo sapiens) (P22303 whole entry): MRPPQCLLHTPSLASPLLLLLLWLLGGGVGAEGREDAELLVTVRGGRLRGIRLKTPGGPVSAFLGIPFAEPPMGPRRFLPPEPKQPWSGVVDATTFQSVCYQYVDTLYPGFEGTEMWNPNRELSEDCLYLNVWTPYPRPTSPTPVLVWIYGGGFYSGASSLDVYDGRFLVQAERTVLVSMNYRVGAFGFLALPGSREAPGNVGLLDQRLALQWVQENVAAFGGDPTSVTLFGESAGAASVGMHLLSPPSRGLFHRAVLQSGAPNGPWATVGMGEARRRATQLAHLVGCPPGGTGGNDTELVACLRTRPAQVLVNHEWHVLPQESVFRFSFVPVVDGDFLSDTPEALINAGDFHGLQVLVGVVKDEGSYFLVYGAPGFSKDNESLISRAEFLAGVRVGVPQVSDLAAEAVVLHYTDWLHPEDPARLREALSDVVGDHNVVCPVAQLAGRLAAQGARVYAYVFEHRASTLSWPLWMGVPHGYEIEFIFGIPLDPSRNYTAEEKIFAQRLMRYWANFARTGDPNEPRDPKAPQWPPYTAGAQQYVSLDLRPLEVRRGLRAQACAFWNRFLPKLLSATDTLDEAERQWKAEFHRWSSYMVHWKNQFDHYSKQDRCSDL

SMILES	inhibition [1]	Activity (NCI-H1975)	Activity (K562)	Activity (BGC-823)	Activity (MCF7)	Activity (HL-60)	Activity (Huh-7)	Activity (Staphylococcus aureus [2])	Activity (Shewanella oneidensis [3])	Activity (Staphylococcus aureus [4])	inhibition at 200 µg/mL (Shewanella oneidensis [5]) [%]
CC1=C[C@@]2(C)[C@H]([C@@H](C)[C@H](O)[C@H](O)[C@H]2O)[C@@H](/C=C(\C)C(=O)O)[C@@H]1/C(C)=C/C[C@H](O)C[C@@H](O)[C@H](C)[C@@H](O)C(C)C	inactive	inactive	inactive	inactive	inactive	inactive	inactive	inactive	inactive	inactive	63
CC1=C[C@@]2(C)[C@H]([C@@H](C)[C@H](O)C[C@H]2O)[C@@H](/C=C(\C)C(=O)O)[C@@H]1/C(C)=C/C[C@H](O)C[C@@H](O)[C@H](C)[C@@H](O)C(C)C	inactive	inactive	inactive	inactive	inactive	inactive	inactive	inactive	inactive	inactive	98
CC1=C[C@@]2(C)[C@@H]([C@@H](/C=C(\C)C(=O)O)[C@@H]1/C(C)=C/C[C@H](O)C[C@@H](O)[C@H](C)[C@@H](O)C(C)C)[C@@H](C)CC[C@H]2O	inactive	inactive	inactive	inactive	inactive	inactive	inactive	inactive	inactive	inactive	94
CC1=C[C@@]2(C)[C@H]([C@@H](C)[C@H](O)C[C@H]2O)[C@@H](/C=C(\C)C(=O)O)[C@@H]1/C(C)=C/C[C@H](O)C[C@@H](O)C[C@@H](O)[C@H](C)[C@@H](O)C(C)C	inactive	inactive	inactive	inactive	inactive	inactive	inactive	inactive	inactive	inactive	91
CC1=C[C@@]2(C)[C@@H]([C@@H](/C=C(\C)C(=O)O)[C@@H]1/C(C)=C/C[C@H](O)C[C@@H](O)C[C@@H](O)[C@H](C)[C@@H](O)C(C)C)[C@@H](C)CC[C@H]2O	inactive	inactive	inactive	inactive	inactive	inactive	inactive	inactive	inactive	inactive	95
